Tests used:
[1] = system: S91 melanoma cells; assay: melanin content of UV-irradiated S91 melanoma cell cultures; format: cell-based; settings: Mus musculus, S91, light or radiation study
Procedure: The inhibiting activity on melanin, of the 1-amino-ethylphosphinic acid (Ia) is studied on S91 melanoma cells cultures.
The model of study was finalized by Gilchrest (1987).
The cultured cells are purchased from a Cloudman melanom.
As ordinary melanocytes, they respond to UV stimuli by an increase of melanogenesis.
The melanogenesis evaluation is made through the melanin content and the activity of enzymes involved in this metabolism: tyrosinase and dopa-tautomerase.
S91 cells are plated in P60 dishes at a density of […] per dish and maintained in Dubelcco's modified Eagle's medium and provided with 10% of calf serum. When the cells have reached about 50% of confluence, they are exposed to a UV irradiation of 10 mJ/cm^2 at 285±5 nm. During irradiation, the medium is replaced with a salin phosphate solution (PBS) to eliminate the forming of toxical derivatives. Immediately after irradiation, the PBS is replaced with fresh medium/7% of calf serum with or without the active agent. After a 16 hours incubation, the medium is replaced with ordinary medium with or without the active agent. […]
The melanin content is then determined: melanocytes are trypsinized, twice washed with PBS and dissolved in 0.8 ml of NaOH 1N, when strongly vortexed for 10-15 min and heated at 60-80° C. The melanin concentration is determined based on the absorbance at 475 nm.

[2] = system: tyrosinase; assay: in vitro inhibition of melanin formation from L-DOPA by tyrosinase; format: biochemical; settings: product diluted at 1.10^-3 mole.l^-1 (2 ml in mixture), pH 6.8, 4 hours at 37° C., optical density at 400 nm
Procedure: The reference used is the ascorbic acid in solution at 0.3.10^-3 mole l^-1.
2 ml of a L-DOPA solution, 1.25 ml of tyrosinase (2500 units/ml), 2 ml of product (Ia) diluted at 1.10^-3 mole.l^-1 are mixed together, and the mixture is completed with 20 ml of phosphate buffer (NaH2 PO4 0.1 mole l^-1 +Na2 HPO4 0.1 mole.l^-1, pH=6.8). The mixture is stirred for 4 hours at 37° C., then allowed to cool at room temperature for one night, shielded from light.
1 ml of concentrated hydrochloric acid is added and the mixture is centrifuged at 4000 rpm for 5 min. The pellet is washed with 10 ml of distilled water then centrifuged a second time. A reflux is made on the pellet with concentrated acid HCL 6N for 48 hours. The dried pellet is dissolved in 10 ml of toluene, exposed to ultrasounds for 2 min, put 2 hours at 37° C. then exposed to ultrasounds again for 5 min. The optical density is measured at 400 nm.

| Compound | inhibition at 500 µM ([1]; read-out: decrease of melanin rate in the cells) [%] | percentage of inhibition of melanin [2] [%] | inhibition at 3300 µM ([1]; kojic acid at 3.3.10^-3 mole.l^-1, UV irradiation 10 mJ/cm^2, absorbance at 475 nm, read-out: decrease of melanin content in the cells) [%] |
| --- | --- | --- | --- |
| CC(N)[PH](=O)O (stereo not shown) [(Ia), 1-amino-ethylphosphinic acid] | 47.2 | 46 |  |
| CC(C)CC(N)[PH](=O)O (stereo not shown) [(Ib), 1-amino-3-methylbutylphosphinic acid] |  | 44 |  |
| O=c1cc(CO)occ1O [kojic acid, reference compound] |  |  | 45.2 |

— patent publication US6280715A, “Cosmetic composition useful notably for the skin whitening and melanogenesis inhibiting agent containing such a cosmetic composition” (Exsymol S.A.M., priority 1997, dated 2001)
